Experimental data published in patent US20250312499A1, “KISSPEPTIN RECEPTOR (KISS1R) TARGETED THERAPEUTICS AND USES THEREOF” (priority 2024, published 2025).
Numbered stars: 1 amine (or outer) side, 2 acyl side, 3 side chain; on linkers, the order of the positions; unused ones are H or OH. Square brackets hold non-standard residues; d marks the D form. Peptide text beside a SMILES is read from it. * marks the point of attachment. DOTA = O=C(O)CN1CCN(CC(=O)O)CCN(CC(=O)*)CCN(CC(=O)O)CC1; Gly(N-(3-F-4-Me-benzyl)) = Cc1ccc(CNCC(=O)*)cc1F; Gly(Nα-4-MeO-benzyl) = COc1ccc(CNCC(=O)*)cc1; Api(1-amidino) = N=C(N)N1CCC(N)(C(=O)O)CC1; Hydrocinnamoyl(4-I) = O=C(CCc1ccc(I)cc1)*; Gly(Nα-CH2(4-Pyr)) = O=C(O)CNCc1ccncc1; 2Nal = N[C@@H](Cc1ccc2ccccc2c1)C(=O)O; d2Nal = N[C@H](Cc1ccc2ccccc2c1)C(=O)O; X1 = O=C(CN1CCC(N[*:1])CC1)[*:2]; 4Pal = N[C@@H](Cc1ccncc1)C(=O)O; d4Pal = N[C@H](Cc1ccncc1)C(=O)O; Cha = N[C@@H](CC1CCCCC1)C(=O)O; Api = NC1(C(=O)O)CCNCC1; X13 = O=C(CNCC1CCSCC1)*; Ahx = NCCCCCC(=O)O; azaGly = NNC(=O)O; Sar = CNCC(=O)O

The compounds below were run against human kisspeptin receptor (Homo sapiens (Human), UniProt Q969F8) (assay: Human KISS1R binding assay (membrane competition binding)). Conditions: 90 min at room temperature; competition with 0.2 nM [125I]-metastin (45-54); Flp-In T-Rex 293 kisspeptin membranes; metal complexes nonradioactive Ga, In, Lu; read-out: hKiSSR Binding Ki (90 min).
Procedure, shortened: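 Membranes from tetracycline-induced (48 h) Flp-In T-Rex 293 cells expressing receptor, 5–10 μg, incubated 90 min at room temperature with 0.2 nM [125I]-metastin (45-54) and competitor (typically 0–10,000 nM) in Tris/Mg/Ca/EGTA/0.1% BSA, pH 7.4. Filtration, washing, counting; Ki by non-linear regression.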

human kisspeptin receptor, sequence (Q969F8 whole entry): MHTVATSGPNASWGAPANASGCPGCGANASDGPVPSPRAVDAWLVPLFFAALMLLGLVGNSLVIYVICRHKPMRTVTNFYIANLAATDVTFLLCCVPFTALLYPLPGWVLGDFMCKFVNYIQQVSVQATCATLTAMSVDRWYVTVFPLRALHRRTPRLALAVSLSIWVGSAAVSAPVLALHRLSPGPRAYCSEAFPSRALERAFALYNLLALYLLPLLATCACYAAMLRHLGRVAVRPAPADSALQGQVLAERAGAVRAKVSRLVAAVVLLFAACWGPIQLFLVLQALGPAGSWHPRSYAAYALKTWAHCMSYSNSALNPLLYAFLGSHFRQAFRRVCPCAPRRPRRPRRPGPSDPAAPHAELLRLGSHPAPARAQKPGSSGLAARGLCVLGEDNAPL

| Compound | Ki |
| --- | --- |
| Cc1ccc(CNCC(=O)N2CCC(NC(=O)[C@H](CC(C)C)NC(=O)NNC(=O)[C@H](Cc3ccccc3)NC(=O)CN3CCC(NC(=O)CN4CCN(CC(=O)O)CCN(CC(=O)O)CCN(CC(=O)O)CC4)CC3)(C(=O)N[C@@H](Cc3ccncc3)C(N)=O)CC2)cc1F [Compound 246] ({DOTA}-[X1]F[azaGly]L[Api](Gly(N-(3-F-4-Me-benzyl)))[4Pal]-NH2) | 0.01 to 0.1 µM |
| CC(C)C[C@H](NC(=O)NNC(=O)[C@H](Cc1ccccc1)NC(=O)[C@@H](NC(=O)[C@H](CC(N)=O)NC(=O)[C@@H](Cc1ccc2ccccc2c1)NC(=O)[C@@H](Cc1ccc(O)cc1)NC(=O)CCCCCNC(=O)CN1CCN(CC(=O)O)CCN(CC(=O)O)CCN(CC(=O)O)CC1)[C@@H](C)O)C(=O)NC1(C(=O)N[C@H](Cc2c[nH]c3ccccc23)C(N)=O)CCN(C(=O)CNCc2ccncc2)CC1 [Compound 370] ({DOTA-Ahx}-[dY][d2Nal]NTF[azaGly]L[Api](Gly(Nα-CH2(4-Pyr)))[dW]-NH2) | > 0.1 µM |
| CC(C)C[C@H](NC(=O)NNC(=O)[C@H](Cc1ccccc1)NC(=O)CCCCCNC(=O)CN1CCN(CC(=O)O)CCN(CC(=O)O)CCN(CC(=O)O)CC1)C(=O)NC1(C(=O)N[C@@H](Cc2c[nH]c3ccccc23)C(N)=O)CCN(C(=N)N)CC1 [Compound 5] ({DOTA-Ahx}-F[azaGly]L[Api(1-amidino)]W-NH2) | 0.01 to 0.1 µM |
| Cc1ccc(CNCC(=O)N2CCC(NC(=O)[C@H](CC(C)C)NC(=O)NNC(=O)[C@H](Cc3ccccc3)NC(=O)[C@@H](NC(=O)[C@H](CC(N)=O)NC(=O)[C@@H](Cc3c[nH]c4ccccc34)NC(=O)[C@@H](Cc3ccc(O)cc3)NC(=O)CCCCCNC(=O)CN3CCN(CC(=O)O)CCN(CC(=O)O)CCN(CC(=O)O)CC3)[C@@H](C)O)(C(=O)N[C@H](Cc3c[nH]c4ccccc34)C(N)=O)CC2)cc1F [Compound 383] ({DOTA-Ahx}-[dY][dW]NTF[azaGly]L[Api](Gly(N-(3-F-4-Me-benzyl)))[dW]-NH2) | < 0.01 µM |
| CC(C)C[C@H](NC(=O)NNC(=O)[C@H](Cc1ccccc1)NC(=O)[C@@H](NC(=O)[C@H](CC(N)=O)NC(=O)[C@H](CCCCNC(=O)CN1CCN(CC(=O)O)CCN(CC(=O)O)CCN(CC(=O)O)CC1)NC(=O)[C@@H](Cc1ccc(O)cc1)NC(=O)CCc1ccc(I)cc1)[C@@H](C)O)C(=O)NC1(C(=O)N[C@@H](Cc2c[nH]c3ccccc23)C(N)=O)CCN(C(=N)N)CC1 [Compound 321] ({Hydrocinnamoyl(4-I)}-[dY]K(DOTA)NTF[azaGly]L[Api(1-amidino)]W-NH2) | < 0.01 µM |
| CC(C)C[C@H](NC(=O)NNC(=O)[C@H](Cc1ccccc1)NC(=O)[C@@H](NC(=O)[C@H](CC(N)=O)NC(=O)[C@@H](Cc1ccc2ccccc2c1)NC(=O)[C@@H](Cc1ccc(O)cc1)NC(=O)CCCCCNC(=O)CN1CCN(CC(=O)O)CCN(CC(=O)O)CCN(CC(=O)O)CC1)[C@@H](C)O)C(=O)NC1(C(=O)N[C@H](Cc2c[nH]c3ccccc23)C(N)=O)CCN(C(=O)CNCC2CCSCC2)CC1 [Compound 375] ({DOTA-Ahx}-[dY][d2Nal]NTF[azaGly]L[Api](X13)[dW]-NH2) | > 0.1 µM |
| Cc1ccc(CNCC(=O)N2CCC(NC(=O)[C@H](CC(C)C)NC(=O)NNC(=O)[C@H](Cc3ccccc3)NC(=O)CCCCCNC(=O)[C@H](Cc3ccc4ccccc4c3)NC(=O)[C@@H](Cc3ccc(O)cc3)NC(=O)CN3CCN(CC(=O)O)CCN(CC(=O)O)CCN(CC(=O)O)CC3)(C(=O)N[C@@H](Cc3c[nH]c4ccccc34)C(N)=O)CC2)cc1F [Compound 285] ({DOTA}-[dY][2Nal][Ahx]F[azaGly]L[Api](Gly(N-(3-F-4-Me-benzyl)))W-NH2) | < 0.01 µM |

More lines, now with the values ahead:

| Ki | Compound |
| --- | --- |
| < 0.01 µM | Cc1ccc(CNCC(=O)N2CCC(NC(=O)[C@H](CC(C)C)NC(=O)NNC(=O)[C@H](Cc3ccccc3)NC(=O)[C@@H](NC(=O)[C@H](CC(N)=O)NC(=O)[C@@H](Cc3ccncc3)NC(=O)[C@@H](Cc3ccc(O)cc3)NC(=O)CNC(=O)CN3CCN(CC(=O)O)CCN(CC(=O)O)CCN(CC(=O)O)CC3)[C@@H](C)O)(C(=O)N[C@@H](Cc3ccc(O)cc3)C(N)=O)CC2)cc1F [Compound 193] ({DOTA}-G[dY][d4Pal]NTF[azaGly]L[Api](Gly(N-(3-F-4-Me-benzyl)))Y-NH2) |
| < 0.01 µM | Cc1ccc(CNCC(=O)N2CCC(NC(=O)[C@H](CC(C)C)NC(=O)NNC(=O)[C@H](CC3CCCCC3)NC(=O)[C@@H](NC(=O)[C@H](CC(N)=O)NC(=O)[C@@H](Cc3ccncc3)NC(=O)[C@@H](Cc3ccc(O)cc3)NC(=O)CCCCCNC(=O)CN3CCN(CC(=O)O)CCN(CC(=O)O)CCN(CC(=O)O)CC3)[C@@H](C)O)(C(=O)N[C@@H](Cc3c[nH]c4ccccc34)C(N)=O)CC2)cc1F [Compound 316] ({DOTA-Ahx}-[dY][d4Pal]NT[Cha][azaGly]L[Api](Gly(N-(3-F-4-Me-benzyl)))W-NH2) |
| < 0.01 µM | CNCC(=O)N1CCC(NC(=O)[C@H](CC(C)C)NC(=O)NNC(=O)[C@H](Cc2ccccc2)NC(=O)[C@@H](NC(=O)[C@H](CC(N)=O)NC(=O)[C@@H](Cc2ccc3ccccc3c2)NC(=O)[C@@H](Cc2ccc(O)cc2)NC(=O)CCCCCNC(=O)CN2CCN(CC(=O)O)CCN(CC(=O)O)CCN(CC(=O)O)CC2)[C@@H](C)O)(C(=O)N[C@@H](Cc2c[nH]c3ccccc23)C(N)=O)CC1 [Compound 201] ({DOTA-Ahx}-[dY][d2Nal]NTF[azaGly]L[Api](Sar)W-NH2) |
| < 0.01 µM | COc1ccc(CNCC(=O)N2CCC(NC(=O)[C@H](CC(C)C)NC(=O)NNC(=O)[C@H](Cc3ccccc3)NC(=O)[C@@H](NC(=O)[C@H](CC(N)=O)NC(=O)[C@H](CCC(=O)O)NC(=O)CCCCCNC(=O)CN3CCN(CC(=O)O)CCN(CC(=O)O)CCN(CC(=O)O)CC3)[C@@H](C)O)(C(=O)N[C@@H](Cc3ccccc3)C(N)=O)CC2)cc1 [Compound 236] ({DOTA-Ahx}-ENTF[azaGly]L[Api](Gly(Nα-4-MeO-benzyl))F-NH2) |
| < 0.01 µM | Cc1ccc(CNCC(=O)N2CCC(NC(=O)[C@H](CC(C)C)NC(=O)NNC(=O)[C@H](Cc3ccccc3)NC(=O)[C@@H](N)CCCCNC(=O)CN3CCN(CC(=O)O)CCN(CC(=O)O)CCN(CC(=O)O)CC3)(C(=O)N[C@@H](Cc3c[nH]c4ccccc34)C(N)=O)CC2)cc1F [Compound 37] (H-K(DOTA)F[azaGly]L[Api](Gly(N-(3-F-4-Me-benzyl)))W-NH2) |
| < 0.01 µM | Cc1ccc(CNCC(=O)N2CCC(NC(=O)[C@H](CC(C)C)NC(=O)NNC(=O)[C@H](Cc3ccccc3)NC(=O)[C@@H](NC(=O)[C@H](CC(N)=O)NC(=O)[C@@H](Cc3ccncc3)NC(=O)[C@@H](Cc3ccc(O)cc3)NC(=O)CN3CCN(CC(=O)O)CCN(CC(=O)O)CCN(CC(=O)O)CC3)[C@@H](C)O)(C(=O)N[C@@H](Cc3ccncc3)C(N)=O)CC2)cc1F [Compound 281] ({DOTA}-[dY][d4Pal]NTF[azaGly]L[Api](Gly(N-(3-F-4-Me-benzyl)))[4Pal]-NH2) |
| < 0.01 µM | CC(C)C[C@H](NC(=O)NNC(=O)[C@H](Cc1ccccc1)NC(=O)[C@@H](NC(=O)[C@H](CC(N)=O)NC(=O)[C@@H](Cc1ccc2ccccc2c1)NC(=O)[C@H](N)Cc1ccc(O)cc1)[C@@H](C)O)C(=O)NC1(C(=O)N[C@@H](Cc2ccccc2)C(N)=O)CCN(C(=N)N)CC1 [Compound 409] (H-[dY][d2Nal]NTF[azaGly]L[Api(1-amidino)]F-NH2) |
